Source: patent US20160069865A1, “GM1 GANGLIOSIDOSIS HUMAN CELL MODEL AND USE THEREOF” (Korea Research Institute of Bioscience and Biotechnology, priority 2014, published 2016)

Assays:
GM1-NPCs [1] = assay: Morphology of GM1-NPCs originated neurosphere after treatment with inflammasome inhibitors (phase-contrast microscopy); assay type: cell-based, human; details: GM1-iPSCs and neural progenitor cells differentiated from the same; summary statement
Experimental: To investigate the recovery of neural damage caused by the increased activation of inflammasome related metabolic pathway in GM1, GM1-NPCs were treated with the inflammasome inhibitors IL1β antagonist (rhIL1RA) and caspase-1 inhibitor (Z-YVAD-FMK), and then the morphology of GM1-NPCs was investigated.
Particularly, the differentiation of GM1-NPCs was induced by the same manner as described in Example <4-1>. Then, the induced GM1-NPCs were cultured in the culture medium respectively treated with 1 μg/ml rhIL1RA (R&D Systems, USA) or 10 μM Z-YVAD-FMK (Merck Millipore, Germany) in order to inhibit inflammasome therein. 2˜4 weeks later, the cultured GM1-NPCs originated neurosphere was obtained. The morphology of neurosphere was observed by phase-contrast microscopy.

GM1-NPCs [2] = assay: Gene expression pattern in GM1-NPCs treated with inflammasome inhibitor (microarray, qPCR); assay type: cell-based, human; details: for direction of the gene expression pattern change: genes with changed expression in treated GM1-NPCs, FIG. 31, FIG. 33; for share of oligo probe pairs / genes displaying the changed expression pattern: microarray, total 27,375 oligo probe pairs, GM1-NPCs treated with 10 μM Z-YVAD-FMK or 1 μg/ml rhIL1RA
Experimental: To investigate whether or not the neural damage could be alleviated according to the increase of the activation of inflammasome related metabolic pathway in GM1, the gene expression pattern in GM1-NPCs treated with the inflammasome inhibitor was investigated.
Particularly, GM1-NPCs were differentiated according to the method described in Example <4-1>, and then treated with rhIL1RA or Z-YVAD-FMK by the same manner as described in Example <9-1>. Microarray was performed by the same manner as described in Example <7-1> in order to investigate the up- or down-regulation of the gene involved in inflammasome. […] WT-NPC was used as the normal control. As for the negative control, GM1-NPCs were treated with DMSO instead of rhIL1RA or Z-YVAD-FMK. The expression pattern (either up- or down regulation) and the mRNA expression level were investigated by the same manner as described above.

[3] = GM1-NPCs treated with 10 μM Z-YVAD-FMK, FIG. 32

| Molecule | GM1 patient-specific cell morphology and gene expression pattern (GM1-NPCs [1]) | increase of the reduced B4GALNT expression (GM1-NPCs [2]; [3]) [fold] | reduction of GLB1 expression compared with that in GM1-NPCs (GM1-NPCs [2]; [3]) [%] | direction of the gene expression pattern change (GM1-NPCs [2]) | share of oligo probe pairs / genes displaying the changed expression pattern (GM1-NPCs [2]) [%] |
| --- | --- | --- | --- | --- | --- |
| COC(=O)C[C@H](NC(=O)[C@H](C)NC(=O)[C@@H](NC(=O)C(Cc1ccc(O)cc1)NC(=O)OCc1ccccc1)C(C)C)C(=O)CF (stereo partly drawn) [Z-YVAD-FMK, methyl (3S)-3-[(2S)-2-[(2S)-2-(2-{[(benzyloxy)carbonyl]amino}-3-(4-hydroxyphenyl)propanamido)-3-methylbutanamido]propanamido]-5-fluoro-4-oxopentanoate] | recovering the GM1 patient-specific cell morphology and gene expression pattern to the normal ones | 2.6 | 47 | tendency to recover their gene expression patterns changed by GM1 mediated neural damage back to the normal pattern | 9.3 |
| rhIL1RA: interleukin 1-receptor antagonist protein, SEQ. ID. NO: 2, commercial (cat #280-RA-050; R&D systems) | recovering the GM1 patient-specific cell morphology and gene expression pattern to the normal ones |  |  | tendency to recover the abnormal gene expression in GM1 cells to the normal expression pattern | 3.6 |
